Source: US20230210858A1, “PODOSOMES AS A THERAPEUTIC TARGET FOR INTRACRANIAL ANEURYSM” (THE BOARD OF REGENTS OF THE UNIVERSITY OF TEXAS SYSTEM, priority 2022, published 2023)

Tests used:
[1] = test system: thsd1-MO injected zebrafish embryos; assay: Hemorrhagic incidence in thsd1-MO injected zebrafish embryos (Table 5 constructs) treated with SRC inhibitors (FIG. 13); type: in vivo
Procedure: (§1) Anti-sense morpholinos against thsd1, atg5 or talin was injected into one-cell stage zebrafish singly or in combination to silence the gene accordingly. At day 2 to day 3, embryos will be checked under regular optical microscope. Embryos with intracranial hemorrhages will be counted and imaged by Olympus microscope.
Subsequently, the nucleic acid constructs encoding these sequences were introduced into zebrafish thsd1 by PCR mutagenesis. Specifically, the thsd1 variant or the WT sequence was subcloned into pCS2+ zebrafish vector for expression. These constructs were used as tools to study cerebrovascular integrity mediated by thsd1 WT and rare variants in the zebrafish animal model selected to model a human condition.
All embryos were injected by thsd1-MO and the hemorrhagic incidence was counted under microscope. For each injection, around 80-120 embryos were injected. *p<0.05, **p<0.01.

[2] = test system: Thsd1-deficient zebrafish; assay: Intracranial hemorrhage in thsd1 knockdown zebrafish embryos treated with SRC inhibitor (FIG. 8); type: in vivo; conditions: vs DMSO control, n>120 embryos, p<0.05, FIG. 8b
Procedure: as §1
Intracranial aneurysm and hemorrhage are tightly associated with compromised cerebrovascular integrity. Recently, zebrafish have gained additional popularity as a vertebrate model organism for studying the cerebrovasculature. Since zebrafish embryos are transparent, intracranial hemorrhage can be directly observed using a standard microscope. Furthermore, zebrafish fecundity and rapid development permits rapid phenotypic evaluation as intracranial hemorrhage in zebrafish fry are detectable as early as 2-3 days post fertilization. Importantly, gain-of-function and loss-of-function approaches are well established in zebrafish that include morpholino and mRNA injections and more recently, through applications of CRISPR/Cas9 technology.
FIGS. 8a-8b are experimental results depicting that loss-of-function of Thsd1 induces SRC-dependent intracranial hemorrhage in zebrafish, and treatment with a PP2 SRC inhibitor prevents intracranial hemorrhage in Thsd1-deficient zebrafish. […] FIG. 8b is a chart quantifying the number of embryos with intracranial hemorrhage (%).

## CC(C)(C)n1nc(-c2ccc(Cl)cc2)c2c(N)ncnc21 [PP2]
[1]; 10 uM in embryo water at 1 dpf for 24 hours
  hemorrhagic incidence (intracranial hemorrhage): rescued intracranial hemorrhage
[2]
  number of embryos with intracranial hemorrhage (%): ameliorated Thsd1-dependent hemorrhage incidents

## CN(C)S(=O)(=O)c1ccc2c(c1)/C(=C/c1cc3c([nH]1)CCCC3)C(=O)N2 [SU5565]
[1]; 1 uM in embryo water at 1 dpf for 24 hours
  hemorrhagic incidence (intracranial hemorrhage): rescued intracranial hemorrhage
